The supplement of paper PMC10307832

Columns and labels:
Test in all cases: relative viability (nuclei count vs DMSO), 5 days (fraction); higher = more cells survive
Bexarotene = compound: C=C(c1ccc(C(=O)O)cc1)c1cc2c(cc1C)C(C)(C)CCC2(C)C [Bexarotene]
In short: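 Viability was defined as treated-well nuclei divided by vehicle-well nuclei, with the median taken over replicate plates. Cells from lung cancer lines sat overnight at 37 °C in 1536-well plates, received five √10-spaced library-drug doses by pinning on vehicle-anchored plates, and grew 5 days without medium change before one-step fixation, permeabilisation and Hoechst staining, 4× imaging and MetaXpress nuclear counts. Only plates with control CV under 25% and at least one doubling were kept.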

Bexarotene + Palbociclib = compound: C=C(c1ccc(C(=O)O)cc1)c1cc2c(cc1C)C(C)(C)CCC2(C)C [Bexarotene] + CC(=O)c1c(C)c2cnc(Nc3ccc(N4CCNCC4)cn3)nc2n(C2CCCC2)c1=O [Palbociclib] (partner 0.5 µM)
In short: (§1)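 Five library-drug doses in √10 steps were combined with a fixed anchor-drug dose, or a single drug was given alone, by pin tool to lung cancer cell lines in 1536-well plates the day after seeding. Nuclei were stained and counted after 5 days. Relative viability is the nuclei count in treated wells over that in vehicle wells, taken as the median of duplicate plates.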

Bexarotene + Foretinib = compound: C=C(c1ccc(C(=O)O)cc1)c1cc2c(cc1C)C(C)(C)CCC2(C)C [Bexarotene] + COc1cc2c(Oc3ccc(NC(=O)C4(C(=O)Nc5ccc(F)cc5)CC4)cc3F)ccnc2cc1OCCCN1CCOCC1 [Foretinib] (partner 0.25 µM)
In short: as §1

Bexarotene + OSI-027 = compound: C=C(c1ccc(C(=O)O)cc1)c1cc2c(cc1C)C(C)(C)CCC2(C)C [Bexarotene] + COc1cccc2cc(-c3nc([C@H]4CC[C@H](C(=O)O)CC4)n4ncnc(N)c34)[nH]c12 [OSI-027] (partner 0.5 µM)
In short: as §1

Cell Line	relative viability (Bexarotene; 0.08 µM)	relative viability (Bexarotene; 0.253 µM)	relative viability (Bexarotene; 0.8 µM)	relative viability (Bexarotene; 2.53 µM)	relative viability (Bexarotene; 8 µM)	relative viability (Bexarotene + Palbociclib; first compound 0.08 µM)	relative viability (Bexarotene + Palbociclib; first compound 0.253 µM)	relative viability (Bexarotene + Palbociclib; first compound 0.8 µM)	relative viability (Bexarotene + Palbociclib; first compound 2.53 µM)	relative viability (Bexarotene + Palbociclib; first compound 8 µM)	relative viability (Bexarotene + Foretinib; first compound 0.08 µM)	relative viability (Bexarotene + Foretinib; first compound 0.253 µM)	relative viability (Bexarotene + Foretinib; first compound 0.8 µM)	relative viability (Bexarotene + Foretinib; first compound 2.53 µM)	relative viability (Bexarotene + Foretinib; first compound 8 µM)	relative viability (Bexarotene + OSI-027; first compound 0.08 µM)	relative viability (Bexarotene + OSI-027; first compound 0.253 µM)	relative viability (Bexarotene + OSI-027; first compound 0.8 µM)	relative viability (Bexarotene + OSI-027; first compound 2.53 µM)	relative viability (Bexarotene + OSI-027; first compound 8 µM)
NCI-H1651	1.08	0.987	1.01	1.02	1	0.531	0.521	0.533	0.537	0.534	0.86	0.98	0.805	0.933	0.84	0.843	0.717	0.71	0.702	0.744
NCI-H1666	1.03	0.924	0.913	0.98	0.857	0.618	0.746	0.545	0.631	0.565	0.974	0.937	0.85	0.867	0.833	0.774	0.759	0.566	0.747	0.593
NCI-H1734	1.04	0.966	0.989	0.881	0.879	0.333	0.33	0.292	0.282	0.318	0.913	0.799	0.928	0.822	0.769	0.616	0.64	0.591	0.493	0.543
NCI-H1755	1.07	1.15	1.06	0.998	0.982	0.463	0.479	0.438	0.48	0.44	0.934	0.953	0.885	0.937	0.852	0.777	0.741	0.675	0.637	0.611
NCI-H1793	1.12	0.93	0.754	0.838	0.881	0.31	0.318	0.284	0.264	0.327	0.732	0.813	0.763	0.629	0.676	0.339	0.319	0.313	0.203	0.311
NCI-H1915	1.13	1.05	0.999	0.951	0.904	0.555	0.5	0.442	0.533	0.423	1.19	1.13	1.1	1.06	1.07	0.67	0.661	0.568	0.594	0.601
NCI-H1944	1.29	1.07	1.07	1.25	1.03	0.419	0.427	0.369	0.379	0.345	1.25	1.09	1.04	1.16	0.965	0.616	0.495	0.48	0.476	0.451
NCI-H1975	1.05	1.04	1.09	1.01	1.2	0.667	0.578	0.575	0.616	0.547	1.11	0.983	1.12	1.04	1.05	0.9	0.811	0.802	0.806	0.722
NCI-H1993	1.09	0.919	0.788	0.862	0.832	0.654	0.668	0.597	0.693	0.733	0.807	0.732	0.768	0.725	0.766	0.588	0.498	0.564	0.54	0.564
NCI-H2009	1.21	1.22	1.11	1.08	1.07	0.32	0.239	0.201	0.226	0.322	1.33	1.34	1.24	1.29	1.19	0.729	0.705	0.584	0.547	0.598
NCI-H2023	1.05	0.958	1.01	0.921	0.771	0.312	0.423	0.4	0.359	0.269	0.841	0.799	0.899	0.775	0.68	0.384	0.391	0.439	0.311	0.378
NCI-H2085	0.981	0.979	0.903	0.869	0.901	0.411	0.434	0.415	0.374	0.383	0.963	0.692	0.804	0.862	0.94	0.841	0.718	0.642	0.675	0.704
NCI-H2087	1.08	1.12	1.02	1.03	0.892	0.254	0.238	0.198	0.274	0.226	1.3	1.1	1.12	0.982	1.03	0.643	0.693	0.663	0.565	0.448
NCI-H2126	1.02	1.01	0.954	0.991	0.971	0.354	0.346	0.325	0.331	0.365	0.971	1.2	1.1	1.22	1.07	0.675	0.71	0.742	0.74	0.683
NCI-H2170	0.96	0.969	0.942	0.909	0.831	0.343	0.403	0.324	0.325	0.331	1.03	1.03	0.983	0.922	0.977	0.699	0.757	0.636	0.683	0.604
NCI-H2228	1.02	1.24	1.03	0.819	0.947	0.968	0.603	0.707	0.702	0.699	0.971	1.08	0.698	0.897	0.837	0.848	0.639	0.359	0.568	0.477
